Assay results as given in patent publication US20240391936A1, “TETRAHYDROTHIENO PYRIDINE DERIVATIVES AS DDRS INHIBITORS” (CHIESI FARMACEUTICI S.P.A., priority 2021, published 2024).
Like-named read-outs stand apart in the source and are kept apart here.

Experiments:
DDR1 [1] = molecular target: T1, DDR1 (Homo sapiens, UniProt Q08345); test: DDR1 binding assay (LanthaScreen Europium Kinase Binding assay); set-up: purchased Carna Biosciences
Experimental: (§1) DDR1 and DDR2 binding assays were performed using Life Technologies LanthaScreen™ Europium Kinase Binding assay. The compounds were incubated with 5 nM DDR1 (Carna Biosciences) or 5 nM DDR2 (Life Technologies) for 1 hour at room temperature in white 384-well OptiPlate (PerkinElmer), containing 20 nM or 10 nM Kinase Tracer 178 respectively and 2 nM Europium labelled anti-GST antibody (Life Technologies) in assay buffer (50 mM HEPES pH 7.5, 10 mM MgCl2, 1 mM EGTA and 0.01% BRIJ35).
(§2) The ratio of fluorescence emission 665 nm/615 nm after excitation at 340 nm was obtained using the Tecan Spark 20M plate reader. IC50 values were determined in GraphPad Prism 7.0 software, using 4 parameter model: log(inhibitor) vs. response. IC50 values were converted in Ki using the Cheng-Prusoff equation

DDR2 = molecular target: T2, DDR2 (Homo sapiens, UniProt Q16832); test: DDR2 binding assay (LanthaScreen Europium Kinase Binding assay); set-up: purchased Life Technologies
T2 sequence (Q16832 22-855): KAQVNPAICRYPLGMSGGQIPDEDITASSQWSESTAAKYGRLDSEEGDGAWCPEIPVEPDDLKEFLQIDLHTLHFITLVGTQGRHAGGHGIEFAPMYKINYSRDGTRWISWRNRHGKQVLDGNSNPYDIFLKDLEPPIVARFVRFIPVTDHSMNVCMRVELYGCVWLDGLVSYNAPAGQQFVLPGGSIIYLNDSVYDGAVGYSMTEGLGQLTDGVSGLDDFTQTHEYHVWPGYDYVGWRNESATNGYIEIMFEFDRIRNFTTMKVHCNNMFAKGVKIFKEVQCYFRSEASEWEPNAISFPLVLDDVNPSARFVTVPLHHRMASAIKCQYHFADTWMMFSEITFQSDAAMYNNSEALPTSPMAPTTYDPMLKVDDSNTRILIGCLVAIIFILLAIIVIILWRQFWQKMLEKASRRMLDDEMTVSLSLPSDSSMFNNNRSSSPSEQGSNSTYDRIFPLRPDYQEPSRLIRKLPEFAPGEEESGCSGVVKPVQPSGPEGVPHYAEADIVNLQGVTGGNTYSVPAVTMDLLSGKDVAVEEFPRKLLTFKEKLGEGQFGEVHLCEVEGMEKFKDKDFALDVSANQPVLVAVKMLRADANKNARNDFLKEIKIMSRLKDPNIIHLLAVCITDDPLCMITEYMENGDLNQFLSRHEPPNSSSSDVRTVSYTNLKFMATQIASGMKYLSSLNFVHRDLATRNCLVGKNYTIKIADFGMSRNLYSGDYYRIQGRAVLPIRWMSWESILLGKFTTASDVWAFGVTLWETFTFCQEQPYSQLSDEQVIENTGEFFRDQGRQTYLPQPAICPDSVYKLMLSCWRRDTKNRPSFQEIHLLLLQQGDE
Experimental: as §1, §2

DDR1 [2] = molecular target: T1, DDR1; test: DDR1 cell based assay (PathHunter U2OS DDR1 assay); set-up: host or cells: U2OS-DDR1 (PathHunter); conditions: U2OS-DDR1 cells, bovine Type II Collagen 20 μg/ml
Experimental: The inhibition of DDR1 receptor activation by compounds was evaluated by PathHunter® U2OS DDR1 assay (Eurofins DiscoverX), according to the manufacturer's instructions. Briefly, U2OS-DDR1 cells were seeded in white 384-well plates at a density of 5000 cells/well and incubated for 2 hours at 37° C. and 5% CO2. Cells were then treated with compounds at different concentrations and incubated for 30 minutes, before stimulation with bovine Type II Collagen 20 μg/ml and incubation overnight at 37° C. and 5% CO2. PathHunter Detection Reagents were prepared according to the protocol provided by DiscoverX and 20 μl/well of this mix were added to each well. After incubating the plates for 1 hour at room temperature in the dark, luminescence signal was acquired with a plate reader. Raw data were normalized to vehicle control (0% for normalization) and positive control (100% for normalization; cells treated with 20 μg/ml collagen II) and IC50 parameters were calculated in GraphPad Prism 8.0 software, using sigmoidal dose-response curve fitting with variable slope.

[3] = binding assay, 5 nM DDR1, 20 nM Kinase Tracer 178, Ki from IC50 by Cheng-Prusoff, read-out: Ki DDR1
[4] = binding assay, 5 nM DDR2, 10 nM Kinase Tracer 178, Ki from IC50 by Cheng-Prusoff, read-out: Ki DDR2
[5] = 5 nM DDR1, 20 nM Kinase Tracer 178, 1 hour at room temperature, IC50 converted in Ki using the Cheng-Prusoff equation, read-out: DDR1 Ki
[6] = 5 nM DDR2, 10 nM Kinase Tracer 178, 1 hour at room temperature, IC50 converted in Ki using the Cheng-Prusoff equation, read-out: DDR2 Ki

T1 sequence (Q08345 19-913): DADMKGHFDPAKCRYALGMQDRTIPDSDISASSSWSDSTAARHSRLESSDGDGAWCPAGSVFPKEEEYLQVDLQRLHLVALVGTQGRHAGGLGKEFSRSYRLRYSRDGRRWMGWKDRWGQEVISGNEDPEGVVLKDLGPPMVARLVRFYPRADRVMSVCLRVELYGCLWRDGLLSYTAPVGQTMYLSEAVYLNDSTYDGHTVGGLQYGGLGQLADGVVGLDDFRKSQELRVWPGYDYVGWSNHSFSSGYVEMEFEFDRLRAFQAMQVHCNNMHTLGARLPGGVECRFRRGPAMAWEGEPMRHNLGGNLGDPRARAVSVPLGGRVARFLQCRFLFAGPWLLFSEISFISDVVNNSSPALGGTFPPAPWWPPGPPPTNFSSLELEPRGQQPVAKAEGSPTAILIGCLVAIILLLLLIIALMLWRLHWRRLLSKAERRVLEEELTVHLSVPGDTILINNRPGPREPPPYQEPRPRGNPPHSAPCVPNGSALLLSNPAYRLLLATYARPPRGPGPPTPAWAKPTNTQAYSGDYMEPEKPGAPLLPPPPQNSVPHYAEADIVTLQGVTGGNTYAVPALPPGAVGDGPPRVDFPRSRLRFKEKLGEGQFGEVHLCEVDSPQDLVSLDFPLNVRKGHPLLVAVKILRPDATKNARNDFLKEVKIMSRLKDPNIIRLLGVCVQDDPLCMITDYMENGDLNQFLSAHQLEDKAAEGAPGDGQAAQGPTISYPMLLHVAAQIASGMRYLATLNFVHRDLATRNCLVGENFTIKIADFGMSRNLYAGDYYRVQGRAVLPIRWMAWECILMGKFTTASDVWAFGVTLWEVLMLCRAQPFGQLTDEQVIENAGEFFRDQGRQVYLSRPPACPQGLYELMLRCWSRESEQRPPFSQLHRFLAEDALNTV

Row | Compound | Ki (DDR1 [1]; [3]) [nM] | Ki (DDR2; [4]) [nM] | IC50 (DDR1 [2]) [nM] | Ki (DDR1 [1]; [5]) [nM] | Ki (DDR2; [6]) [nM]
1 | CC1Cc2c(C(=O)Nc3cccc(C(F)(F)F)c3)csc2CN1Cc1cnc2cnccn12 (single isomer, unassigned) [Example 105, 6-(imidazo[1,2-a]pyrazin-3-ylmethyl)-5-methyl-N-(3-(trifluoromethyl)phenyl)-4,5,6,7-tetrahydrothieno[2,3-c]pyridine-3-carboxamide] | < 25 | < 25 | 50 to 80 | – | –
2 | CC1c2scc(C(=O)Nc3cccc(C(F)(F)F)c3)c2CCN1Cc1cnc2[nH]ccc2c1 (single isomer, unassigned) [Example 107, 6-((1H-pyrrolo[2,3-b]pyridin-5-yl)methyl)-7-methyl-N-(3-(trifluoromethyl)phenyl)-4,5,6,7-tetrahydrothieno[2,3-c]pyridine-3-carboxamide] | < 25 | < 25 | < 25 | – | –
3 | Cc1ccc(-n2nc(C(C)(C)C)cc2NC(=O)c2csc3c2CCN(C(=O)c2cnc4ccccn24)C3)cc1 [Example 2, N-(3-(tert-butyl)-1-(p-tolyl)-1H-pyrazol-5-yl)-6-(imidazo[1,2-a]pyridine-3-carbonyl)-4,5,6,7-tetrahydrothieno[2,3-c]pyridine-3-carboxamide] | < 25 | < 25 | 25 to 50 | – | –
4 | CC(C)(C)c1cc(NC(=O)c2csc3c2CCN(C(=O)c2cnc4ccccn24)C3)n(-c2ccc(F)cc2)n1 [Example 5, N-(3-(tert-butyl)-1-(4-fluorophenyl)-1H-pyrazol-5-yl)-6-(imidazo[1,2-a]pyridine-3-carbonyl)-4,5,6,7-tetrahydrothieno[2,3-c]pyridine-3-carboxamide] | < 25 | < 25 | 25 to 50 | – | –
5 | CC(C)(C)c1cc(NC(=O)c2csc3c2CCN(C(=O)c2cnc4ccccn24)C3)n(-c2ccccc2)n1 [Example 6, N-(3-(tert-butyl)-1-phenyl-1H-pyrazol-5-yl)-6-(imidazo[1,2-a]pyridine-3-carbonyl)-4,5,6,7-tetrahydrothieno[2,3-c]pyridine-3-carboxamide] | < 25 | < 25 | 25 to 50 | – | –
6 | O=C(Nc1cc(F)cc(OC(F)(F)F)c1)c1csc2c1CCN(C(=O)c1cnc3ccccn13)C2 [Example 10, N-(3-fluoro-5-(trifluoromethoxy)phenyl)-6-(imidazo[1,2-a]pyridine-3-carbonyl)-4,5,6,7-tetrahydrothieno[2,3-c]pyridine-3-carboxamide] | < 25 | < 25 | < 25 | – | –
7 | O=C(Nc1cc(CN2CCCC2)cc(C(F)(F)F)c1)c1csc2c1CCN(C(=O)c1cnc3ccccn13)C2 [Example 11] | < 25 | < 25 | < 25 | – | –
8 | O=C(Nc1ccc(OC2COC2)c(C(F)(F)F)c1)c1csc2c1CCN(C(=O)c1cnc3ccccn13)C2 [Example 13, 6-(imidazo[1,2-a]pyridine-3-carbonyl)-N-(4-(oxetan-3-yloxy)-3-(trifluoromethyl)phenyl)-4,5,6,7-tetrahydrothieno[2,3-c]pyridine-3-carboxamide] | < 25 | < 25 | < 25 | – | –
9 | O=C(Nc1ccc(OCC2COC2)c(C(F)(F)F)c1)c1csc2c1CCN(C(=O)c1cnc3ccccn13)C2 [Example 14, 6-(imidazo[1,2-a]pyridine-3-carbonyl)-N-(4-(oxetan-3-ylmethoxy)-3-(trifluoromethyl)phenyl)-4,5,6,7-tetrahydrothieno[2,3-c]pyridine-3-carboxamide] | < 25 | < 25 | < 25 | – | –
10 | COCCOc1ccc(NC(=O)c2csc3c2CCN(C(=O)c2cnc4ccccn24)C3)cc1C(F)(F)F [Example 15, 6-(imidazo[1,2-a]pyridine-3-carbonyl)-N-(4-(2-methoxyethoxy)-3-(trifluoromethyl)phenyl)-4,5,6,7-tetrahydrothieno[2,3-c]pyridine-3-carboxamide] | < 25 | < 25 | 25 to 50 | – | –
11 | O=C(Nc1ccc(OCCO)c(C(F)(F)F)c1)c1csc2c1CCN(C(=O)c1cnc3ccccn13)C2 [Example 16, N-(4-(2-hydroxyethoxy)-3-(trifluoromethyl)phenyl)-6-(imidazo[1,2-a]pyridine-3-carbonyl)-4,5,6,7-tetrahydrothieno[2,3-c]pyridine-3-carboxamide] | < 25 | < 25 | < 25 | – | –
12 | O=C(Nc1ccnc(C(F)(F)F)c1)c1csc2c1CCN(C(=O)c1cnc3ccccn13)C2 [Example 17, 6-(imidazo[1,2-a]pyridine-3-carbonyl)-N-(2-(trifluoromethyl)pyridin-4-yl)-4,5,6,7-tetrahydrothieno[2,3-c]pyridine-3-carboxamide] | < 25 | < 25 | 25 to 50 | – | –
13 | CN1CCN(Cc2ccc(NC(=O)c3csc4c3CCN(C(=O)c3cnc5ccccn35)C4)cc2C(F)(F)F)CC1 [Example 18, 6-(imidazo[1,2-a]pyridine-3-carbonyl)-N-(4-((4-methylpiperazin-1-yl)methyl)-3-(trifluoromethyl)phenyl)-4,5,6,7-tetrahydrothieno[2,3-c]pyridine-3-carboxamide] | < 25 | < 25 | 50 to 80 | – | –
14 | CN(C)Cc1cc(NC(=O)c2csc3c2CCN(C(=O)c2cnc4ccccn24)C3)cc(C(F)(F)F)c1 [Example 19, N-(3-((dimethylamino)methyl)-5-(trifluoromethyl)phenyl)-6-(imidazo[1,2-a]pyridine-3-carbonyl)-4,5,6,7-tetrahydrothieno[2,3-c]pyridine-3-carboxamide] | < 25 | < 25 | < 25 | – | –
15 | O=C(Nc1cc(C(F)(F)F)ncn1)c1csc2c1CCN(C(=O)c1cnc3ccccn13)C2 [Example 21, 6-(imidazo[1,2-a]pyridine-3-carbonyl)-N-(6-(trifluoromethyl)pyrimidin-4-yl)-4,5,6,7-tetrahydrothieno[2,3-c]pyridine-3-carboxamide] | < 25 | < 25 | 25 to 50 | – | –
16 | CN1CCN(Cc2cc(NC(=O)c3cc4c(s3)CN(C(=O)c3cnc5ccccn35)CC4)cc(C(F)(F)F)c2)CC1 [Example C1, 6-(imidazo[1,2-a]pyridine-3-carbonyl)-N-(3-((4-methylpiperazin-1-yl)methyl)-5-(trifluoromethyl)phenyl)-4,5,6,7-tetrahydrothieno[2,3-c]pyridine-2-carboxamide] | – | – | – | 312 | 531
17 | CN1CCN(Cc2cc(NC(=O)c3cc4c(s3)CCN(C(=O)c3cnc5ccccn35)C4)cc(C(F)(F)F)c2)CC1 [Example C2, 5-(imidazo[1,2-a]pyridine-3-carbonyl)-N-(3-((4-methylpiperazin-1-yl)methyl)-5-(trifluoromethyl)phenyl)-4,5,6,7-tetrahydrothieno[3,2-c]pyridine-2-carboxamide] | – | – | – | 195 | 160
